Among the data in ChEMBL document CHEMBL1155753, “Verbalactone, a new macrocyclic dimer lactone from the roots of Verbascum undulatum with antibacterial activity” (2001) are MIC values, retold here.

In experiment [1] the test system is Klebsiella pneumoniae. The experiment is described as follows: Antibacterial activity against Klebsiella pneumoniae isolate after 24 hrs by agar dilution method. In kind it is functional.
Experiment [2] has as its system Klebsiella aerogenes. The experiment can be described thus: Antibacterial activity against Enterobacter aerogenes isolate after 24 hrs by agar dilution method. In kind it is functional.
The test system of experiment [3] is Pseudomonas aeruginosa. The experiment can be described thus: Antibacterial activity against Pseudomonas aeruginosa ATCC 27853 after 24 hrs by agar dilution method. As to conditions: ATCC 27853, 24 h. The class given is functional.
The test system of experiment [4] is Lacticaseibacillus casei. The experiment is described as follows: Antibacterial activity against Lactobacillus casei isolate after 24 hrs by agar dilution method. In kind it is functional.
Experiment [5] has as its system Salmonella enterica subsp. enterica. The experiment can be described thus: Antibacterial activity against Salmonella enteritidis isolate after 24 hrs by agar dilution method. The class given is functional, Salmonella enterica subsp. enterica serovar Enteritidis.
Experiment [6] has as its system Escherichia coli. The experiment can be described thus: Antibacterial activity against Escherichia coli ATCC 25922 after 24 hrs by agar dilution method. In kind it is functional. To be noted: ATCC 25922, 24 h.
The subject of experiment [7] is Staphylococcus epidermidis. The experiment can be described thus: Antibacterial activity against Staphylococcus epidermidis isolate after 24 hrs by agar dilution method. The class given is functional.
For experiment [8], the system named is Staphylococcus aureus. The experiment is described as follows: Antibacterial activity against Staphylococcus aureus ATCC 25923 after 24 hrs by agar dilution method. To be noted: ATCC 25923, 24 h. The class given is functional.

SMILES strings stand for the structures. Values after ≈ are worked out from the molar mass of the structure shown. Bounds are passed on as bounds.

As to `CCCCC[C@@H]1C[C@@H](O)CC(=O)O[C@H](CCCCC)C[C@@H](O)CC(=O)O1` [VERBALACTONE], the MIC is 250 µg/mL (≈ 671 µM) in experiment [1]; above 500 µg/mL in experiment [2]; 500 µg/mL (≈ 1340 µM) in experiment [3]; above 125 µg/mL in experiment [4]; 125 µg/mL (≈ 336 µM) in experiment [5]; 250 µg/mL (≈ 671 µM) in experiment [6]. The MIC in experiment [7] and in experiment [8] was 62.5 µg/mL (≈ 168 µM) in each case.
